Experimental data as given in patent publication US8476062B2, “Biosensor method and system based on feature vector extraction” (priority 2005, dated 2013).
Several values for one entry are separate records, joined by “and”; a condition that tells them apart may be missing. Identical values can stand only once. Like-named read-outs stand apart in the source and are kept apart here.

Legend:
[1] = test system: Clinch River samples (naturally-occurring photosynthetic organisms); assay: Toxic agent detection by fluorescence induction, Clinch River samples; assay type: cell-based
Description: (§1) Fluorescence induction data set of normal primary-source drinking water samples as well as samples exposed to four different toxic agents at different concentrations were collected. The control and toxic-agent-exposed fluorescence induction data were taken every 5 minutes after the dark adaptation for 15 minutes. • 20 μM DCMU, • 5 mM/10 mM KCN, • 40 μM/60 μM MPt, and • 225 μM Paraquat. Experiment 1—Toxic Agent Detection
(§2) The objective of the first experiment performed was to evaluate the performance of the inventive methodology in detecting the presence of toxic agents. FIGS. 12-23 show the extracted features (including PSII, amplitude statistics, and wavelet coefficient statistical features) of each specific toxic agent as functions of time. The toxic agents were added into the samples at time 0, therefore, the signals with negative time index correspond to the control data and the signals during the positive time period are the agent-exposed data collected from either the Clinch River samples or the lab-grown Chlamydomonas reinhardtii samples. At each time moment, three samples were collected and feature values calculated. The mean and standard deviation of these three values are used to illustrate the performance curve at that time moment. To examine the change of feature values over time, the signal collected at time 0 as reference was chosen and yield at each time moment calculated (feature at time t−feature at time 0)/feature at time 0. The following notations are used to describe these performance curves: • μc(t), σc(t): the mean and the standard deviation of the feature values derived from the three control samples collected at moment t (with a negative time index) • μe(t), σe(t): the mean and the standard deviation of the feature values derived from the three exposure samples collected at moment t (with a positive time index)
(§3) In order to quantitatively evaluate the effectiveness of each feature in differentiating between the control and the exposure signals of different toxic agents, two metrics are introduced: the Fisher criterion and the average confidence level. The Fisher criterion originates from pattern classification (Duda, et al., 2001) where a linear projection is pursued in order to best separate two classes. In this work, the definition of Fisher criterion is used to quantify different performance curves in differentiating between the control and the exposure signals. In general, the Fisher criterion looks for the feature that maximizes the difference between the mean value of feature derived from the control and the exposed signal while minimizing the variance among them, as formulated below: […]
(§4) Table 1 lists the value of the Fisher criterion to evaluate the effect of using different features for agent detection. In both Table 1 and Table 2 “Clinch” refers to Clinch River samples and “Chlamy” to lab-grown Chlamydomonas reinhardtii samples. It can be seen from Table 1 below that the first-order amplitude statistics (mean) gives the best metric evaluation for most of the toxic agents, while the wavelet analysis, the standard deviation and the skewness in amplitude statistics also contribute to the differentiation between control and exposure signals in some cases.

[2] = test system: lab-grown Chlamydomonas reinhardtii; assay: Toxic agent detection by fluorescence induction, lab-grown Chlamydomonas reinhardtii samples; assay type: cell-based
Description: as §1, §2, §3, §4

## CN(C)C(=O)Nc1ccc(Cl)c(Cl)c1 [DCMU, Diuron]
[1]; Clinch, 20 μM DCMU
  Fisher criterion (control vs exposure signals), Amplitude Statistics Kurtosis: 71.3140
  Fisher criterion (control vs exposure signals), Amplitude Statistics Mean: 356.4241
  Fisher criterion (control vs exposure signals), Amplitude Statistics Skewness: 64.7360
  Fisher criterion (control vs exposure signals), PSII: 62.8073
  Fisher criterion (control vs exposure signals), Wavelet Coefficient Energy: 93.8024
  Fisher criterion (control vs exposure signals), Wavelet Coefficient Mean: 37.3350
[2]; Chlamy, 20 μM DCMU
  Fisher criterion (control vs exposure signals), Amplitude Statistics Kurtosis: 242.9
  Fisher criterion (control vs exposure signals), Amplitude Statistics Mean: 2111.9
  Fisher criterion (control vs exposure signals), Amplitude Statistics Skewness: 835.9
  Fisher criterion (control vs exposure signals), PSII: 63.9
  Fisher criterion (control vs exposure signals), Wavelet Coefficient Energy: 8.2
  Fisher criterion (control vs exposure signals), Wavelet Coefficient Mean: 5.3

## COP(=S)(OC)Oc1ccc([N+](=O)[O-])cc1 [MPt, methyl parathion]
[1]
  Fisher criterion (control vs exposure signals), Amplitude Statistics Mean: 9.9401 and 5.1574
  Fisher criterion (control vs exposure signals), Wavelet Coefficient Energy: 258.6794 and 159.3636
  Fisher criterion (control vs exposure signals), Wavelet Coefficient Mean: 148.3582 and 75.2339
[2]
  Fisher criterion (control vs exposure signals), Amplitude Statistics Mean: 15.3435 and 20.3104
  Fisher criterion (control vs exposure signals), PSII: 7.8844 and 11.7760
  Fisher criterion (control vs exposure signals), Wavelet Coefficient Energy: 29.3503 and 29.5307
  Fisher criterion (control vs exposure signals), Wavelet Coefficient Mean: 15.7935 and 22.2547

## C[n+]1ccc(-c2cc[n+](C)cc2)cc1 [Paraquat]
[1]; Clinch, 225 μM Paraquat
  Fisher criterion (control vs exposure signals), Amplitude Statistics Kurtosis: 13.0980
  Fisher criterion (control vs exposure signals), Amplitude Statistics Mean: 0.6992
  Fisher criterion (control vs exposure signals), Amplitude Statistics Skewness: 21.8997
  Fisher criterion (control vs exposure signals), PSII: 40.3550
  Fisher criterion (control vs exposure signals), Wavelet Coefficient Energy: 121.8164
  Fisher criterion (control vs exposure signals), Wavelet Coefficient Mean: 88.1866
[2]; Chlamy, 225 μM Paraquat
  Fisher criterion (control vs exposure signals), Amplitude Statistics Kurtosis: 0.5380
  Fisher criterion (control vs exposure signals), Amplitude Statistics Mean: 9.2416
  Fisher criterion (control vs exposure signals), Amplitude Statistics Skewness: 0.1661
  Fisher criterion (control vs exposure signals), PSII: 33.4259
  Fisher criterion (control vs exposure signals), Wavelet Coefficient Energy: 15.7150
  Fisher criterion (control vs exposure signals), Wavelet Coefficient Mean: 7.4516
